Values of other authors as cited in US20240287015A1, “Method for Producing an Ionizable Lipid” (NanoVation Therapeutics Inc., priority 2021, published 2024).

Details: siRNA LNP formulations; MC3 relative to similar KC2-based formulations

## CCCCC/C=C\C/C=C\CCCCCCCCC(CCCCCCCC/C=C\C/C=C\CCCCC)OC(=O)CCCN(C)C [MC3, (6Z,9Z,28Z,31Z)-heptatriacont-6,9,28,31-tetraene-19-yl 4-(dimethylamino)butanoate]
  times less siRNA required than KC2 to attain the same end result: about 3 times
